# Data: paper PMC11325084, “Pharmacokinetics and tissue distribution of LN002, a new compound alternative oxidase inhibitor against Cryptosporidium in rats” (Frontiers in Pharmacology, 2024)
# Tests used:
# [1] = Tissue distribution of LN002 after oral administration in rats; format: in vivo, Sprague–Dawley (SD) rats; conditions: oral 200 mg/kg; for Cmax / Tmax / half-life: both sexes, Sprague-Dawley, rat; for Cmax / Tmax / half-life / AUC0-24 h: SD rats
# Procedure: Thirty SD rats (15 for each sex) were randomly and equally assigned to 5 groups (half male and half female). The rats in each group were euthanized with pentobarbital sodium (a dose of 180 mg/kg) at five different time points: 0.5, 2, 6, 12 and 24 h after oral administration at 200 mg/kg LN002. Subsequently, various tissues, including the heart, liver, spleen, lungs, kidneys, brain, muscles, small intestine, and intestinal contents, were promptly collected ([Verma et al., 2022]). The dissected tissues were rinsed with normal saline, dried with an absorbent paper, homogenized using a tissue homogenizer, and stored at a temperature of −20°C until further analysis.
# Tissue samples and intestinal contents were accurately weighed to 0.5 ± 0.02 g in a 10 mL EP tube and added with 2 mL of extraction solvent (acetonitrile: methanol [2:1, v/v]). The extraction solvent was vortexed for 1 min and centrifuged at 6,000 rpm and 4°C for 10 min. The supernatant was transferred to a new test tube and vortexed after adding 2 mL of water. The sample was purified using solid-phase extraction (SPE) using methanol as the extraction solvent. The Poly-Sery MAX SPE Cartridge (Shanghai Anpu Experimental Technology Co., Ltd., Shanghai, China) was added with 3 mL of methanol to activate, 3 mL of water to rinse, and the abovementioned extraction solvent. Afterward, 2 mL of 10% methanol water was poured into extraction columns to elute impurities. Finally, 1.5 mL of methanol was added to elute the compound and collect the eluent. Twenty microliters of the eluent was passed through a 0.22 μm filter membrane and then injected into the HPLC system for analysis.
# A Shimadzu LC-20A system (Shimadzu Technologies, Kyoto, Japan) equipped with a LabSolutions system (version 5.1) system was used for HPLC analysis. The separation process utilized an ARD-C18 column (250 mm × 4.6 mm, 5 µm) (Zhongpu Technology Co., Ltd., Fuzhou, China). The analytes were detected using a UV detector at 333 nm. The chromatographic conditions used an isocratic mobile phase that combines methanol (solvent A) and deionized water (solvent B) (75:25, v/v), and they were propelled through the column at a constant flow rate of 1 mL/min, ensuring uniform separation. The injection volume was 20 μL. The temperature of the column was set to 40°C.
# Pharmacokinetic data were obtained via non-compartmental PK analysis of total concentration versus time profiles for plasma using Phoenix WinNonlin 8.2 (Certara, L.P., Princeton, NJ, United States). Statistical analysis and graphing were undertaken using GraphPad Prism 9.5 for Windows (GraphPad Software, Inc., La Jolla, CA, United States).
# [2] = Stability of LN002 in rat plasma, liver homogenate and intestinal contents under storage conditions; format: in vitro ADME; set-up: Short-term stability at room temperature (6 h), measured concentration / Freeze and thaw stability at −20°C/Room temperature (3 cycles), measured concentration / Auto-sampler stability (12 h), measured concentration / Long-term stability at −20°C (30 days), measured concentration: unit not given here; conditions: for Auto-sampler stability (12 h), measured concentration / Freeze and thaw stability at −20°C/Room temperature (3 cycles), measured concentration / Long-term stability at −20°C (30 days), measured concentration / Short-term stability at room temperature (6 h), measured concentration: n = 6, mean ± SD
# Procedure: By investigating the low, middle, and high-concentration stability of rat plasma, the liver and intestinal contents in six replicates at different storage conditions, autosampler, short-term, freeze and thaw, long-term stability, and stock solution stability evaluations were conducted.
# [3] = Stability of LN002 stock solution; format: physicochemical; conditions: for Stock solution stability, measured concentration: nominal concentration 1,000 ng/mL, n = 6, mean ± SD
# Procedure: LN002 was dissolved in N,N-dimethylformamide, then mixed to make a concentration of 1 mg/mL standard solution, and stored at −20°C. By investigating the low, middle, and high-concentration stability of rat plasma, the liver and intestinal contents in six replicates at different storage conditions, autosampler, short-term, freeze and thaw, long-term stability, and stock solution stability evaluations were conducted.
# [4] = intestinal contents, n = 6, mean ± SD
# [5] = intestinal contents, nominal concentration 50 ng/g
# [6] = intestinal contents, nominal concentration 200 ng/g
# [7] = intestinal contents, nominal concentration 1,000 ng/g
# [8] = liver, nominal concentration 50 ng/g
# [9] = liver, nominal concentration 200 ng/g
# [10] = liver, nominal concentration 1,000 ng/g
# [11] = plasma, nominal concentration 50 ng/mL
# [12] = plasma, nominal concentration 200 ng/mL
# [13] = plasma, nominal concentration 1,000 ng/mL
smiles,measurement,setting,value
"N#C/C(=C\c1c[nH]nc1-c1ccccc1)c1nn(-c2ccccc2)c(N)c1C#N [LN002, 5-amino-3-[1-cyano-2-(3-phenyl-4-vinopyrazole))-1-phenyl-4-vinopyrazole]",Cmax,"[1]; brain, n = 6, mean ± SD",456 ± 80.9 ng/g
same,Tmax,"[1]; brain, n = 6, mean ± SD",34.8 ± 11.4 min
same,half-life,"[1]; brain, n = 6, mean ± SD",312 ± 139 min
same,Cmax,"[1]; heart, n = 6, mean ± SD",972 ± 165 ng/g
same,Tmax,"[1]; heart, n = 6, mean ± SD",34.2 ± 6.6 min
same,half-life,"[1]; heart, n = 6, mean ± SD",409 ± 99 min
same,Cmax,[1]; [4],4.45e+06 ng/g
same,Tmax,[1]; [4],200 ± 96 min
same,half-life,[1]; [4],98.4 ± 0.6 min
same,Cmax,"[1]; intestine, n = 6, mean ± SD",607000 ng/g
same,Tmax,"[1]; intestine, n = 6, mean ± SD",160 ± 89.4 min
same,half-life,"[1]; intestine, n = 6, mean ± SD",329 ± 88.8 min
same,Tmax,"[1]; kidney, n = 6",30 min
same,Cmax,"[1]; kidney, n = 6, mean ± SD",561 ± 135 ng/g
same,half-life,"[1]; kidney, n = 6, mean ± SD",302 ± 91.2 min
same,Cmax,"[1]; liver, n = 6, mean ± SD",478 ± 157 ng/g
same,Tmax,"[1]; liver, n = 6, mean ± SD",40.2 ± 11.4 min
same,half-life,"[1]; liver, n = 6, mean ± SD",332 ± 39.6 min
same,Cmax,"[1]; lung, n = 6, mean ± SD",8700 ± 1410 ng/g
same,Tmax,"[1]; lung, n = 6, mean ± SD",125 ± 25.8 min
same,half-life,"[1]; lung, n = 6, mean ± SD",326 ± 96 min
same,Cmax,"[1]; muscle, n = 6, mean ± SD",3980 ± 589 ng/g
same,Tmax,"[1]; muscle, n = 6, mean ± SD",34.8 ± 11.4 min
same,half-life,"[1]; muscle, n = 6, mean ± SD",378 ± 163 min
same,Tmax,"[1]; spleen, n = 6",30 min
same,Cmax,"[1]; spleen, n = 6, mean ± SD",645 ± 187 ng/g
same,half-life,"[1]; spleen, n = 6, mean ± SD",348 ± 116 min
same,AUC0-24 h,"[1]; brain, n = 6, mean ± SD",1328.60 ± 176.19 h⋅ng/g
same,AUC0-24 h,"[1]; heart, n = 6, mean ± SD",3855.84 ± 323.04 h⋅ng/g
same,AUC0-24 h,[1]; [4],"35080673.50 ± 644,065.57 h⋅ng/g"
same,AUC0-24 h,"[1]; intestine, n = 6, mean ± SD","2185750.70 ± 149,399.23 h⋅ng/g"
same,AUC0-24 h,"[1]; kidney, n = 6, mean ± SD",1781.24 ± 453.85 h⋅ng/g
same,AUC0-24 h,"[1]; liver, n = 6, mean ± SD",4051.62 ± 586.44 h⋅ng/g
same,AUC0-24 h,"[1]; lung, n = 6, mean ± SD","84,344.09 ± 9677.76 h⋅ng/g"
same,AUC0-24 h,"[1]; muscle, n = 6, mean ± SD","12,634.31 ± 2366.24 h⋅ng/g"
same,Rank order of concentration in tissues and intestinal contents,[1]; rats,"intestinal contents, followed by the small intestine, lung, muscle, heart, liver, spleen, kidney, and brain"
same,Detection in tissues at the last time point (in words),"[1]; rats, 24 h",detected at 24 h in all tissues and intestinal contents
same,AUC0-24 h,"[1]; spleen, n = 6, mean ± SD",2280.55 ± 418.06 h⋅ng/g
same,"Auto-sampler stability (12 h), measured concentration",[2]; [5],0.048 ± 0.001
same,"Freeze and thaw stability at −20°C/Room temperature (3 cycles), measured concentration",[2]; [5],0.050 ± 0.002
same,"Long-term stability at −20°C (30 days), measured concentration",[2]; [5],0.048 ± 0.002
same,"Short-term stability at room temperature (6 h), measured concentration",[2]; [5],0.051 ± 0.002
same,"Auto-sampler stability (12 h), measured concentration",[2]; [6],0.191 ± 0.011
same,"Freeze and thaw stability at −20°C/Room temperature (3 cycles), measured concentration",[2]; [6],0.192 ± 0.009
same,"Long-term stability at −20°C (30 days), measured concentration",[2]; [6],0.202 ± 0.003
same,"Short-term stability at room temperature (6 h), measured concentration",[2]; [6],0.204 ± 0.007
same,"Auto-sampler stability (12 h), measured concentration",[2]; [7],1.001 ± 0.034
same,"Freeze and thaw stability at −20°C/Room temperature (3 cycles), measured concentration",[2]; [7],0.978 ± 0.053
same,"Long-term stability at −20°C (30 days), measured concentration",[2]; [7],0.997 ± 0.012
same,"Short-term stability at room temperature (6 h), measured concentration",[2]; [7],0.976 ± 0.042
same,"Auto-sampler stability (12 h), measured concentration",[2]; [8],0.049 ± 0.002
same,"Freeze and thaw stability at −20°C/Room temperature (3 cycles), measured concentration",[2]; [8],0.051 ± 0.002
same,"Long-term stability at −20°C (30 days), measured concentration",[2]; [8],0.051 ± 0.002
same,"Short-term stability at room temperature (6 h), measured concentration",[2]; [8],0.050 ± 0.003
same,"Auto-sampler stability (12 h), measured concentration",[2]; [9],0.198 ± 0.007
same,"Freeze and thaw stability at −20°C/Room temperature (3 cycles), measured concentration",[2]; [9],0.205 ± 0.005
same,"Long-term stability at −20°C (30 days), measured concentration",[2]; [9],0.196 ± 0.007
same,"Short-term stability at room temperature (6 h), measured concentration",[2]; [9],0.197 ± 0.009
same,"Auto-sampler stability (12 h), measured concentration",[2]; [10],1.065 ± 0.036
same,"Freeze and thaw stability at −20°C/Room temperature (3 cycles), measured concentration",[2]; [10],0.985 ± 0.057
same,"Long-term stability at −20°C (30 days), measured concentration",[2]; [10],0.995 ± 0.064
same,"Short-term stability at room temperature (6 h), measured concentration",[2]; [10],0.984 ± 0.042
same,"Auto-sampler stability (12 h), measured concentration",[2]; [11],0.050 ± 0.002
same,"Freeze and thaw stability at −20°C/Room temperature (3 cycles), measured concentration",[2]; [11],0.048 ± 0.002
same,"Long-term stability at −20°C (30 days), measured concentration",[2]; [11],0.052 ± 0.002
same,"Short-term stability at room temperature (6 h), measured concentration",[2]; [11],0.051 ± 0.003
same,"Auto-sampler stability (12 h), measured concentration",[2]; [12],0.204 ± 0.014
same,"Freeze and thaw stability at −20°C/Room temperature (3 cycles), measured concentration",[2]; [12],0.197 ± 0.014
same,"Long-term stability at −20°C (30 days), measured concentration",[2]; [12],0.203 ± 0.006
same,"Short-term stability at room temperature (6 h), measured concentration",[2]; [12],0.210 ± 0.013
same,"Auto-sampler stability (12 h), measured concentration",[2]; [13],0.992 ± 0.061
same,"Freeze and thaw stability at −20°C/Room temperature (3 cycles), measured concentration",[2]; [13],1.028 ± 0.035
same,"Long-term stability at −20°C (30 days), measured concentration",[2]; [13],1.035 ± 0.080
same,"Short-term stability at room temperature (6 h), measured concentration",[2]; [13],0.987 ± 0.032
same,Stability in plasma and tissue homogenate (in words),"[2]; rat plasma, liver, intestinal contents, short-term, freeze and thaw, auto-sampler, long-term",stable
same,"Stock solution stability, measured concentration",[3]; 15 d,0.941 ± 0.091
same,"Stock solution stability, measured concentration",[3]; 30 d,0.924 ± 0.051
same,Degradation of stock solution (in words),"[3]; stock solution, 15 d and 30 d",no appreciable degradation
